According to US9833497B2, “Human originated EGF domain proteins and use of the same” (CHENGDU SOURCEBIO LIMITED-LIABILITY COMPANY, priority 2013, dated 2017):

Experiments:
Assay type in all cases: cell-based
E. coli DH5α = test: Antibacterial activity: MIC and growth curve against E. coli DH5α in 96-well plate; conditions: minimal inhibitory concentration against E. coli DH5α; 96-well plate, 5×10^5 CFU/mL, 37° C., judged after 8 h
Procedure, shortened: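 MIC taken as lowest protein level with no bacterial growth, tracked by A600 every 30 min during 37 °C, 175 rpm culture. Two-fold protein series 50-12.5 μg/mL final, triplicate wells, against 5×10^5 CFU/mL of LB-washed mid-log cells.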

E. coli BL21 = test: MIC against Gram-negative bacteria: E. coli BL21; conditions: 5×10^5 CFU/mL
Procedure, shortened: (§1)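 Broth microdilution, LB medium, final inoculum 5×10^5 CFU/mL from McFarland 0.5 cultures. Recombinant human EGF domain proteins tested in two-fold steps, n=3. MIC: lowest concentration, no growth.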

Pseudomonas aeruginosa = test: MIC against Gram-negative bacteria: Pseudomonas aeruginosa; conditions: 5×10^5 CFU/mL
Procedure, shortened: as §1

Klebsiella pneumonia = test: MIC against Gram-negative bacteria: Klebsiella pneumonia; conditions: 5×10^5 CFU/mL
Procedure, shortened: as §1

Enterobacter cloacae = test: MIC against Gram-negative bacteria: Enterobacter cloacae; conditions: 5×10^5 CFU/mL
Procedure, shortened: as §1

Aeromonas hydrophila = test: MIC against Gram-negative bacteria: Aeromonas hydrophila; conditions: 5×10^5 CFU/mL
Procedure, shortened: as §1

Citrobacter diversus = test: MIC against Gram-negative bacteria: Citrobacter diversus; conditions: 5×10^5 CFU/mL
Procedure, shortened: as §1

Moraxella catarrhalis = test: MIC against Gram-negative bacteria: Moraxella catarrhalis; conditions: 5×10^5 CFU/mL
Procedure, shortened: as §1

Proteus mirabilis = test: MIC against Gram-negative bacteria: Proteus mirabilis; conditions: 5×10^5 CFU/mL
Procedure, shortened: as §1

Proteus vulgaris = test: MIC against Gram-negative bacteria: Proteus vulgaris; conditions: 5×10^5 CFU/mL
Procedure, shortened: as §1

Serratia marcescens = test: MIC against Gram-negative bacteria: Serratia marcescens; conditions: 5×10^5 CFU/mL
Procedure, shortened: as §1

[1] = E. coli BL21, 10 h cultivation at 37° C.

Substance: PRT1354 (RDRQCPRDCSNRGLCVDGQCVCEDGFTGPDCA; listed as Homo sapiens)
- MIC (E. coli DH5α): 25 µg/mL
- MIC against E. coli BL21 (E. coli BL21; [1]): 12.5 µg/mL
- MIC against P. aeruginosa (Pseudomonas aeruginosa; Pseudomonas aeruginosa, 10 h cultivation at 37° C.): 25 µg/mL
- MIC against K. pneumonia (Klebsiella pneumonia; Klebsiella pneumonia, 10 h cultivation at 37° C.): 50 µg/mL
- MIC against E. cloacae (Enterobacter cloacae; Enterobacter cloacae, 10 h cultivation at 37° C.): 25 µg/mL
- MIC against A. hydrophila (Aeromonas hydrophila; Aeromonas hydrophila, 10 h cultivation at 37° C.): 12.5 µg/mL
- MIC against C. diversus (Citrobacter diversus; Citrobacter diversus, 10 h cultivation at 37° C.): 25 µg/mL
- MIC against M. catarrhalis (Moraxella catarrhalis; Moraxella catarrhalis, 10 h cultivation at 37° C.): 50 µg/mL
- MIC against P. mirabilis (Proteus mirabilis; Proteus mirabilis, 10 h cultivation at 37° C.): 25 µg/mL
- MIC against P. vulgaris (Proteus vulgaris; Proteus vulgaris, 10 h cultivation at 37° C.): 12.5 µg/mL
- MIC against S. marcescens (Serratia marcescens; Serratia marcescens, 10 h cultivation at 37° C.): 25 µg/mL

Substance: PRT525 (CNCNRDGTEPGVCDPGTGACLCKENVEGTECNVCREGSFHLDPANLKGCTS; listed as Homo sapiens)
- MIC (E. coli DH5α): 25 µg/mL
- MIC against E. coli BL21 (E. coli BL21; 96-well plate, 37° C., 10 h): 12.5 µg/mL
- MIC against P. aeruginosa (Pseudomonas aeruginosa; 96-well plate, 37° C., 10 h): 25 µg/mL
- MIC against K. pneumonia (Klebsiella pneumonia; 96-well plate, 37° C., 10 h): 50 µg/mL
- MIC against E. cloacae (Enterobacter cloacae; 96-well plate, 37° C., 10 h): 25 µg/mL
- MIC against A. hydrophila (Aeromonas hydrophila; 96-well plate, 37° C., 10 h): 12.5 µg/mL
- MIC against C. diversus (Citrobacter diversus; 96-well plate, 37° C., 10 h): 25 µg/mL
- MIC against M. catarrhalis (Moraxella catarrhalis; 96-well plate, 37° C., 10 h): 50 µg/mL
- MIC against P. mirabilis (Proteus mirabilis; 96-well plate, 37° C., 10 h): 25 µg/mL
- MIC against P. vulgaris (Proteus vulgaris; 96-well plate, 37° C., 10 h): 12.5 µg/mL
- MIC against S. marcescens (Serratia marcescens; 96-well plate, 37° C., 10 h): 25 µg/mL

Substance: PRT128 (CLPSYCEHGGECSQSWDTFSCDCLGTGYTGETC; listed as Homo sapiens)
- MIC (E. coli DH5α): 12.5 µg/mL
- MIC (μg/mL) E. coli BL21 (E. coli BL21; E. coli BL21, 96-well plate, 37° C., 10 h): 25 µg/mL
- MIC (μg/mL) P. aeruginosa (Pseudomonas aeruginosa; Pseudomonas aeruginosa, 96-well plate, 37° C., 10 h): 12.5 µg/mL
- MIC (μg/mL) K. pneumonia (Klebsiella pneumonia; Klebsiella pneumonia, 96-well plate, 37° C., 10 h): 25 µg/mL
- MIC (μg/mL) E. cloacae (Enterobacter cloacae; Enterobacter cloacae, 96-well plate, 37° C., 10 h): 12.5 µg/mL
- MIC (μg/mL) A. hydrophila (Aeromonas hydrophila; Aeromonas hydrophila, 96-well plate, 37° C., 10 h): 12.5 µg/mL
- MIC (μg/mL) C. diversus (Citrobacter diversus; Citrobacter diversus, 96-well plate, 37° C., 10 h): 12.5 µg/mL
- MIC (μg/mL) M. catarrhalis (Moraxella catarrhalis; Moraxella catarrhalis, 96-well plate, 37° C., 10 h): 12.5 µg/mL
- MIC (μg/mL) P. mirabilis (Proteus mirabilis; Proteus mirabilis, 96-well plate, 37° C., 10 h): 12.5 µg/mL
- MIC (μg/mL) P. vulgaris (Proteus vulgaris; Proteus vulgaris, 96-well plate, 37° C., 10 h): 12.5 µg/mL
- MIC (μg/mL) S. marcescens (Serratia marcescens; Serratia marcescens, 96-well plate, 37° C., 10 h): 50 µg/mL

Substance: PRT847 (CDCSPHGALSIPCNSSGKCQCKVGVIGSICDRCQDGYYGFSKNGCLP; listed as Homo sapiens)
- MIC (E. coli DH5α): 12.5 µg/mL
- MIC (μg/mL) E. coli BL21 (E. coli BL21; [1]): 25 µg/mL
- MIC (μg/mL) P. aeruginosa (Pseudomonas aeruginosa; P. aeruginosa, 10 h cultivation at 37° C.): 12.5 µg/mL
- MIC (μg/mL) K. pneumonia (Klebsiella pneumonia; K. pneumonia, 10 h cultivation at 37° C.): 12.5 µg/mL
- MIC (μg/mL) E. cloacae (Enterobacter cloacae; E. cloacae, 10 h cultivation at 37° C.): 25 µg/mL
- MIC (μg/mL) A. hydrophila (Aeromonas hydrophila; A. hydrophila, 10 h cultivation at 37° C.): 12.5 µg/mL
- MIC (μg/mL) C. diversus (Citrobacter diversus; C. diversus, 10 h cultivation at 37° C.): 25 µg/mL
- MIC (μg/mL) M. catarrhalis (Moraxella catarrhalis; M. catarrhalis, 10 h cultivation at 37° C.): 12.5 µg/mL
- MIC (μg/mL) P. mirabilis (Proteus mirabilis; P. mirabilis, 10 h cultivation at 37° C.): 12.5 µg/mL
- MIC (μg/mL) P. vulgaris (Proteus vulgaris; P. vulgaris, 10 h cultivation at 37° C.): 12.5 µg/mL
- MIC (μg/mL) S. marcescens (Serratia marcescens; S. marcescens, 10 h cultivation at 37° C.): 12.5 µg/mL

Substance: PRT510 (CDCFLPGTDATTCDSETKKCSCSDQTGQCTCKVNVEGIHCDRCRPGKFGLDAKNPLGCSS; listed as Homo sapiens)
- MIC (E. coli DH5α): 50 µg/mL
- MIC against E. coli BL21 (E. coli BL21; 96-well plate, 37° C., 10 h): 25 µg/mL
- MIC against P. aeruginosa (Pseudomonas aeruginosa; 96-well plate, 37° C., 10 h): 12.5 µg/mL
- MIC against K. pneumonia (Klebsiella pneumonia; 96-well plate, 37° C., 10 h): 25 µg/mL
- MIC against E. cloacae (Enterobacter cloacae; 96-well plate, 37° C., 10 h): 50 µg/mL
- MIC against A. hydrophila (Aeromonas hydrophila; 96-well plate, 37° C., 10 h): 25 µg/mL
- MIC against C. diversus (Citrobacter diversus; 96-well plate, 37° C., 10 h): 12.5 µg/mL
- MIC against M. catarrhalis (Moraxella catarrhalis; 96-well plate, 37° C., 10 h): 25 µg/mL
- MIC against P. mirabilis (Proteus mirabilis; 96-well plate, 37° C., 10 h): 50 µg/mL
- MIC against P. vulgaris (Proteus vulgaris; 96-well plate, 37° C., 10 h): 25 µg/mL
- MIC against S. marcescens (Serratia marcescens; 96-well plate, 37° C., 10 h): 12.5 µg/mL
